Measured values from ChEMBL document CHEMBL5614390, “Novel EGFR inhibitors against resistant L858R/T790M/C797S mutant for intervention of non-small cell lung cancer” (Eur J Med Chem, 2024).
Calls of active or inactive are those of the source. The rule behind the calls is not given here.

What was measured:
[1] = Metabolic stability in dog liver microsomes assessed as intrinsic clearance at 10 uM preincubated for 5 mins followed by NADPH addition and measured upto 60 mins by HPLC analysis; assay type: ADME, Canis lupus familiaris, Microsome; settings: time < 65 min, read-out: CLH
[2] = test system: PC-9; experiment: Induction of apoptosis in human PC-9 cells expressing EGFR Del19/T790M/C797S mutant assessed as early apoptotic cells at 1 uM incubated for 48 hrs by Annexin V-FITC/PI staining based flow cytometric analysis (reference value: 0.050 %); assay type: functional
[3] = test system: PC-9; experiment: Induction of cell cycle arrest in human PC-9 cells expressing EGFR L858R/T790M/C797S mutant assessed as accumulation of cells at G2/M phase at 1 uM incubated for 24 hrs by PI staining based flow cytometric analysis; assay type: functional
[4] = test system: PC-9; experiment: Induction of apoptosis in human PC-9 cells expressing EGFR L858R/T790M/C797S mutant assessed as viable cells at 0.1 uM incubated for 48 hrs by Annexin V-FITC/PI staining based flow cytometric analysis (reference value: 98.9 %); assay type: functional; settings: read-out: Activity
[5] = test system: PC-9; experiment: Induction of apoptosis in human PC-9 cells expressing EGFR Del19/T790M/C797S mutant assessed as early apoptotic cells at 0.1 uM incubated for 48 hrs by Annexin V-FITC/PI staining based flow cytometric analysis (reference value: 0.050 %); assay type: functional
[6] = test system: PC-9; experiment: Induction of cell cycle arrest in human PC-9 cells expressing EGFR L858R/T790M/C797S mutant assessed as accumulation of cells at G0/G1 phase at low dose incubated for 24 hrs by PI staining based flow cytometric analysis; assay type: functional
[7] = Metabolic stability in dog liver microsomes assessed as half-life at 10 uM preincubated for 5 mins followed by NADPH addition and measured upto 60 mins by HPLC analysis; assay type: ADME, Canis lupus familiaris, Microsome; settings: time < 65 min
[8] = test system: PC-9; experiment: Induction of apoptosis in human PC-9 cells expressing EGFR Del19/T790M/C797S mutant assessed as necrotic cells at 1 uM incubated for 48 hrs by Annexin V-FITC/PI staining based flow cytometric analysis (reference value: 0.090 %); assay type: functional
[9] = test system: PC-9; experiment: Antitumor activity against human PC-9 cells expressing EGFR L858R/T790M/C797S mutant xenografted in BALB/c nude mouse assessed as tumor growth inhibition at 40 mg/kg, po administered for 18 days relative to control; assay type: functional; settings: Mus musculus, PC-9, 432 h, time 18 day, read-out: TGI
[10] = test system: PC-9; experiment: Antitumor activity against human PC-9 cells expressing EGFR L858R/T790M/C797S mutant xenografted in BALB/c nude mouse assessed as average tumor weight at 40 mg/kg, po administered for 18 days (reference value: 0.83 g); assay type: functional; settings: time 18 day
[11] = test system: PC-9; experiment: Induction of cell cycle arrest in human PC-9 cells expressing EGFR Del19/T790M/C797S mutant assessed as accumulation of cells at G0/G1 phase at low dose incubated for 24 hrs by PI staining based flow cytometric analysis; assay type: functional
[12] = Metabolic stability in Sprague-Dawley rat liver microsomes assessed as intrinsic clearance at 10 uM preincubated for 5 mins followed by NADPH addition and measured upto 60 mins by HPLC analysis; assay type: ADME, Microsome; settings: time < 65 min, read-out: CLH
[13] = test system: PC-9; experiment: Induction of apoptosis in human PC-9 cells expressing EGFR Del19/T790M/C797S mutant assessed as necrotic cells at 0.1 uM incubated for 48 hrs by Annexin V-FITC/PI staining based flow cytometric analysis (reference value: 0.090 %); assay type: functional
[14] = test system: PC-9; experiment: Antitumor activity against human PC-9 cells expressing EGFR L858R/T790M/C797S mutant xenografted in BALB/c nude mouse assessed as tumor growth inhibition at 10 mg/kg, po administered for 18 days relative to control; assay type: functional; settings: PC-9, 432 h, time 18 day, read-out: TGI
[15] = Metabolic stability in rabbit liver microsomes assessed as half-life at 10 uM preincubated for 5 mins followed by NADPH addition and measured upto 60 mins by HPLC analysis; assay type: ADME, Oryctolagus cuniculus, Microsome; settings: time < 65 min
[16] = test system: PC-9; experiment: Induction of apoptosis in human PC-9 cells expressing EGFR L858R/T790M/C797S mutant assessed as necrotic cells at 1 uM incubated for 48 hrs by Annexin V-FITC/PI staining based flow cytometric analysis (reference value: 0.540 %); assay type: functional
[17] = Metabolic stability in mouse liver microsomes assessed as half-life at 10 uM preincubated for 5 mins followed by NADPH addition and measured upto 60 mins by HPLC analysis; assay type: ADME, Microsome; settings: time < 65 min
[18] = Metabolic stability in rabbit liver microsomes assessed as intrinsic clearance at 10 uM preincubated for 5 mins followed by NADPH addition and measured upto 60 mins by HPLC analysis; assay type: ADME, Oryctolagus cuniculus, Microsome; settings: time < 65 min, read-out: CLH
[19] = Metabolic stability in mouse liver microsomes assessed as intrinsic clearance at 10 uM preincubated for 5 mins followed by NADPH addition and measured upto 60 mins by HPLC analysis; assay type: ADME, Microsome; settings: time < 65 min, read-out: CLH
[20] = test system: PC-9; experiment: Induction of apoptosis in human PC-9 cells expressing EGFR L858R/T790M/C797S mutant assessed as late apoptotic cells at 0.1 uM incubated for 48 hrs by Annexin V-FITC/PI staining based flow cytometric analysis (reference value: 0.360 %); assay type: functional
[21] = test system: PC-9; experiment: Induction of apoptosis in human PC-9 cells expressing EGFR L858R/T790M/C797S mutant assessed as early apoptotic cells at 0.1 uM incubated for 48 hrs by Annexin V-FITC/PI staining based flow cytometric analysis (reference value: 0.210 %); assay type: functional
[22] = test system: PC-9; experiment: Antitumor activity against human PC-9 cells expressing EGFR L858R/T790M/C797S mutant xenografted in BALB/c nude mouse assessed as reduction in tumor volume at 10 to 40 mg/kg, po administered for 18 days; assay type: functional, organism-based; settings: dose 10-40 mg/kg, time 18.0 day
[23] = test system: PC-9; experiment: cells; settings: Homo sapiens, PC-9, 72 h
Description: Cytotoxicity against human PC-9 cells expressing EGFR Del19/T790M/C797S mutant assessed as inhibition of cell proliferation incubated for 72 hrs by CCK8 assay

[24] = test system: PC-9; experiment: Induction of cell cycle arrest in human PC-9 cells expressing EGFR Del19/T790M/C797S mutant assessed as accumulation of cells at G2/M phase at 1 uM incubated for 24 hrs by PI staining based flow cytometric analysis; assay type: functional
[25] = test system: PC-9; experiment: Antitumor activity against human PC-9 cells expressing EGFR L858R/T790M/C797S mutant xenografted in BALB/c nude mouse assessed as reduction in tumor weight at 10 to 40 mg/kg, po administered for 18 days; assay type: functional, organism-based; settings: dose 10-40 mg/kg, time 18.0 day

microsomal CLint at 10 µM [1]: 18 µL/min/mg
half-life at 10 µM [7]: 4.28 h
microsomal CLint at 10 µM [12]: 52 µL/min/mg
half-life at 10 µM [15]: 2.36 h
half-life at 10 µM [17]: 1.38 h
microsomal CLint at 10 µM [18]: 32.7 µL/min/mg
microsomal CLint at 10 µM [19]: 56 µL/min/mg
IC50 [23]: 201 nM
SMILES: C=CC(=O)Nc1cc(Nc2ncc(F)c(-c3ccc4cc(C(=O)NC)n(C(C)C)c4c3)n2)ccc1N1CCN(C)CC1
Activity [2]: 11.6%
Activity [3]: Active
viability at 0.1 µM [4]: 84.9%
Activity [5]: 3.32%
Activity [6]: Active
Activity [8]: 1.01%
inhibition in vivo at 40 mg/kg [9]: 70.6%
Activity [10]: 0.31 g
Activity [11]: Active
Activity [13]: 3.55%
inhibition in vivo at 10 mg/kg [14]: 48.7%
Activity [16]: 0.91%
Activity [20]: 7.25%
Activity [21]: 2.03%
Activity [22]: Active
Activity [24]: Active
Activity [25]: Active
